Assay results: PMC8491704, “Pharmacokinetic study of Tangwang Mingmu granule for the management of diabetic retinopathy based on network pharmacology” (Pharmaceutical Biology, 2021)
Like-named read-outs stand apart in the source and are kept apart here.

How the values were obtained:
[1] = Stability of QC samples of 8 compounds in rat plasma (25 °C 4 h, autosampler 12 h, three freeze-thaw cycles, −80 °C 7 d); format: in vitro ADME
Protocol: The calibration curves were assessed at eight concentration levels using the correlation coefficient (r). The lower limit of quantification (LLOQ) could fulfil the analytical requirements and achieved reliable accuracy and precision with a signal-to-noise ratio (S/N) ≥ 10. To determine intra- and inter-day precision and accuracy, six replicate quality control (QC) samples at three concentrations were prepared. Inter- and intra-day precision was evaluated by determining relative standard deviation (RSD) values, while accuracy was expressed in terms of the relative error (RE). The extraction recoveries were determined using three concentration levels and calculated by comparing the peak area of extracted samples with post-extracted spiked samples. Subsequently, matrix effects were assessed using the peak area of post-extracted spiked samples contrasted with QC samples at the three concentration levels. The stability test of QC samples at the three concentration levels was as follows: storage at 25 °C for 4 h, storage in an autosampler for 12 h, freeze-thaw cycle for three times, and storage at −80 °C for 7 d.
The stability tests were carried out under three freeze-thaw cycles, at 25 °C for 4 h, in an autosampler for 12 h, and at −80 °C for 7 d.

[2] = Pharmacokinetic study in SD rats after oral administration of TWMM (UPLC-QQQ-MS of plasma); format: in vivo, Sprague-Dawley (SD) rats; settings: oral TWMM 9.6 g/kg
Protocol: Chromatographic separation was performed using an ACQUITY UPLC H-Class system equipped with a 1.8 μm HSS T3 analytical column (100 mm × 2.1 i.d., Waters Corporation, Milford, USA). […] ESI source was set to negative ionisation mode while the analysis was performed using multiple reaction monitorin. Ion spray voltage (3000 V), capillary temperature (450 °C), and the source parameters of the nine compounds are shown in Table 2.
The data obtained from the UPLC/Q-Orbitrap MS was imported into Xcalibur 4.0 software for analysis. Furthermore, the constituents acquired using GCMS-QP 2010 were profiled by comparison using the National Institute of Standards and Technology (NIST) database. The pharmacokinetic data were processed through MassLynx 4.1, and DAS 2.0 software was used to calculate the pharmacokinetic parameters according to the compartment model.
Six male SD rats (average weight: 220 ± 10 g) were acquired from Beijing Vital-River Laboratory Animal Technology Co., Ltd. All rats were acclimatized to an environmentally controlled laboratory for a week. Following this period, the rats were exposed to fasting conditions for 12 h but were allowed free access to water before the experiment. The rats were orally administered TWMM at a dose of 9.6 g/kg. Blood samples (300 µL) were collected into heparinized centrifuge tubes from the fossa orbitalis at pre-dose and 0.03, 0.08, 0.17, 0.25, 0.5, 1, 2, 4, 8, 12, 24, and 36 h intervals. The samples were immediately centrifuged at 6000 g for 10 min at 4 °C and the supernatants were transferred to clean centrifuge tubes.
Each 100 µL plasma sample was mixed with 20 µL of methanol, 20 µL of IS (5 µg/mL), and 600 µL acetonitrile. The mixtures were centrifuged at 15,000 g for 10 min at 4 °C after being vortexed for 3 min. The obtained supernatants were transferred to clean 1.5 mL centrifuge tubes, followed by evaporation under a milt nitrogen stream. Next, the obtained residues were individually redissolved in 100 µL of methanol and centrifuged at 15,000 g for 10 min at 4 °C after vortexed for 3 min. Lastly, 10 µL of individual supernatant was injected for analysis.

[3] = QC concentration 1 ng/mL, autosampler 12 h, 4 °C, rat plasma, n = 3
[4] = QC concentration 1 ng/mL, long term 7 day, –80 °C, rat plasma, n = 3
[5] = QC concentration 1 ng/mL, room temperature 25 °C, rat plasma, n = 3
[6] = QC concentration 1 ng/mL, three freeze/thaw cycles, rat plasma, n = 3
[7] = QC concentration 10 ng/mL, autosampler 12 h, 4 °C, rat plasma, n = 3
[8] = QC concentration 10 ng/mL, long term 7 day, –80 °C, rat plasma, n = 3
[9] = QC concentration 10 ng/mL, room temperature 25 °C, rat plasma, n = 3
[10] = QC concentration 10 ng/mL, three freeze/thaw cycles, rat plasma, n = 3
[11] = QC concentration 200 ng/mL, autosampler 12 h, 4 °C, rat plasma, n = 3
[12] = QC concentration 200 ng/mL, long term 7 day, –80 °C, rat plasma, n = 3
[13] = QC concentration 200 ng/mL, room temperature 25 °C, rat plasma, n = 3
[14] = QC concentration 200 ng/mL, three freeze/thaw cycles, rat plasma, n = 3

Row | Compound | Stability in rat plasma, Autosampler (12 h, 4 °C), Measured [1, 3] | Stability in rat plasma, Long term (7 day, –80 °C), Measured [1, 4] | Stability in rat plasma, Room temperature (4 h, 25 °C), Measured [1, 5] | Stability in rat plasma, Three freeze/thaw cycles, Measured [1, 6] | Stability in rat plasma, Autosampler (12 h, 4 °C), Measured [1, 7] | Stability in rat plasma, Long term (7 day, –80 °C), Measured [1, 8] | Stability in rat plasma, Room temperature (4 h, 25 °C), Measured [1, 9] | Stability in rat plasma, Three freeze/thaw cycles, Measured [1, 10] | Stability in rat plasma, Autosampler (12 h, 4 °C), Measured [1, 11] | Stability in rat plasma, Long term (7 day, –80 °C), Measured [1, 12] | Stability in rat plasma, Room temperature (4 h, 25 °C), Measured [1, 13] | Stability in rat plasma, Three freeze/thaw cycles, Measured [1, 14] | areas under the concentration-time curve (AUC0–∞) [2] | AUC (0–36) ([2]; n = 6) | AUC (0–∞) ([2]; n = 6) | Cmax ([2]; n = 6) | MRT (0–36) ([2]; n = 6) | MRT (0–∞) ([2]; n = 6) | Tmax ([2]; n = 6) | t1/2 ([2]; n = 6) | also measured
1 | CC=C1[C@H](O[C@@H]2O[C@H](CO)[C@@H](O)[C@H](O)[C@H]2O)OC=C(C(=O)OC)[C@H]1CC(=O)OC[C@H]1O[C@@H](OCCc2ccc(O)cc2)[C@H](O)[C@@H](O)[C@@H]1O (stereo in doubt) [Specnuezhenide] | 1.1 ± 0.1 ng/mL | 1.0 ± 0.1 ng/mL | 1.0 ± 0.1 ng/mL | 1.0 ± 0.0 ng/mL | 9.8 ± 0.6 ng/mL | 10.3 ± 0.6 ng/mL | 10.7 ± 0.2 ng/mL | 11.5 ± 0.6 ng/mL | 198.2 ± 2.6 ng/mL | 225.6 ± 9.0 ng/mL | 212.7 ± 8.4 ng/mL | 219.0 ± 8.4 ng/mL | 57.2 ± 30.2 ng·h/mL | 48.62 ± 19.41 ng·h/mL | 57.19 ± 30.25 ng·h/mL | 13.33 ± 4.61 ng/mL | 11.02 ± 5.63 h | 19.29 ± 16.60 h | 0.46 ± 0.29 h | 20.27 ± 25.00 h | Tmax ([2]; n = 6, listed as specnuezhenide): ≤ 1 h
2 | O=C(/C=C/c1ccc(O)c(O)c1)O[C@@H]1C[C@](O)(C(=O)O)C[C@@H](O)[C@H]1O [Chlorogenic acid] |  |  |  |  |  |  |  |  |  |  |  |  |  |  |  |  |  |  |  | rapid elimination | Stability in rat plasma, Three freeze/thaw cycles, Measured ([1]; rat, plasma, 1 ng/mL): 1.1 ± 0.1 ng/mL; Stability in rat plasma, Three freeze/thaw cycles, Measured ([1]; rat, plasma, 10 ng/mL): 9.8 ± 0.8 ng/mL; Stability in rat plasma, Three freeze/thaw cycles, Measured ([1]; rat, plasma, 200 ng/mL): 212.6 ± 19.4 ng/mL; Stability in rat plasma, Room temperature (4 h, 25 °C), Measured ([1]; rat, plasma, 1 ng/mL): 1.2 ± 0.1 ng/mL; Stability in rat plasma, Room temperature (4 h, 25 °C), Measured ([1]; rat, plasma, 10 ng/mL): 9.2 ± 0.6 ng/mL; Stability in rat plasma, Room temperature (4 h, 25 °C), Measured ([1]; rat, plasma, 200 ng/mL): 187.6 ± 4.2 ng/mL; Stability in rat plasma, Autosampler (12 h, 4 °C), Measured ([1]; rat, plasma, 12 h, 1 ng/mL): 0.9 ± 0.1 ng/mL; Stability in rat plasma, Autosampler (12 h, 4 °C), Measured ([1]; rat, plasma, 12 h, 10 ng/mL): 9.1 ± 1.1 ng/mL; Stability in rat plasma, Autosampler (12 h, 4 °C), Measured ([1]; rat, plasma, 12 h, 200 ng/mL): 200.0 ± 14.0 ng/mL; Stability in rat plasma, Long term (7 day, –80 °C), Measured ([1]; rat, plasma, 168 h, 1 ng/mL): 1.0 ± 0.1 ng/mL; Stability in rat plasma, Long term (7 day, –80 °C), Measured ([1]; rat, plasma, 168 h, 10 ng/mL): 10.3 ± 0.5 ng/mL; Stability in rat plasma, Long term (7 day, –80 °C), Measured ([1]; rat, plasma, 168 h, 200 ng/mL): 214.4 ± 10.5 ng/mL; half-life ([2]; male, Sprague-Dawley, rat, n = 6): 2.71 ± 0.11 h; AUC(0-t) ([2]; male, Sprague-Dawley, rat, n = 6, read-out: AUC (0–36)): 34 ± 4.55 ng·h/mL; Cmax ([2]; male, Sprague-Dawley, rat, n = 6, read-out: Cmax): 16.1 ± 4.17 ng/mL; MRT last ([2]; male, Sprague-Dawley, rat, n = 6, read-out: MRT (0–36)): 4.97 ± 0.71 h; MRT inf ([2]; male, Sprague-Dawley, rat, n = 6, read-out: MRT (0–∞)): 4.97 ± 0.71 h; AUC(0-inf) ([2]; male, Sprague-Dawley, rat, read-out: areas under the concentration-time curve (AUC0–∞)): 34 ± 4.55 ng·h/mL; Tmax ([2]; male, Sprague-Dawley, rat, po, 9.6 g/kg, n = 6, read-out: Tmax): ≤ 1 h
3 | COc1ccc(-c2cc(=O)c3c(O)cc(O[C@@H]4O[C@H](CO[C@@H]5O[C@@H](C)[C@H](O)[C@@H](O)[C@H]5O)[C@@H](O)[C@H](O)[C@H]4O)cc3o2)cc1 [Linarin] | 1.1 ± 0.1 ng/mL | 1.1 ± 0.1 ng/mL | 1.0 ± 0.1 ng/mL | 1.0 ± 0.0 ng/mL | 10.2 ± 0.6 ng/mL | 10.2 ± 0.4 ng/mL | 11.9 ± 0.1 ng/mL | 11.6 ± 0.5 ng/mL | 208.5 ± 2.0 ng/mL | 221.0 ± 11.2 ng/mL | 223.3 ± 5.0 ng/mL | 219.4 ± 13.8 ng/mL |  | 12.04 ± 4.72 ng·h/mL | 12.04 ± 4.72 ng·h/mL | 12.78 ± 8.82 ng/mL | 4.26 ± 2.67 h | 4.26 ± 2.68 h | 0.16 ± 0.10 h | 2.81 ± 0.21 h | Tmax ([2]; n = 6, listed as linarin): ≤ 1 h; t1/2 ([2]; n = 6, listed as linarin): rapid elimination
4 | Jaspolyside |  |  |  |  |  |  |  |  |  |  |  |  | 53.4 ± 32.2 ng·h/mL | 46.59 ± 9.58 ng·h/mL | 53.37 ± 32.17 ng·h/mL | 14.25 ± 3.67 ng/mL | 11.42 ± 1.29 h | 15.62 ± 10.83 h | 0.38 ± 0.31 h | 29.15 ± 12.65 h | Tmax ([2]; n = 6, listed as jaspolyside): ≤ 1 h
